pEC50: −log10 of the molar value.
Target: T1, hP2X2R (Homo sapiens, UniProt Q9UBL9)
T1 construct: expressed in transfected cells; host or cells: Xenopus laevis oocytes (cRNA injection)
T1 sequence (Q9UBL9 1-471): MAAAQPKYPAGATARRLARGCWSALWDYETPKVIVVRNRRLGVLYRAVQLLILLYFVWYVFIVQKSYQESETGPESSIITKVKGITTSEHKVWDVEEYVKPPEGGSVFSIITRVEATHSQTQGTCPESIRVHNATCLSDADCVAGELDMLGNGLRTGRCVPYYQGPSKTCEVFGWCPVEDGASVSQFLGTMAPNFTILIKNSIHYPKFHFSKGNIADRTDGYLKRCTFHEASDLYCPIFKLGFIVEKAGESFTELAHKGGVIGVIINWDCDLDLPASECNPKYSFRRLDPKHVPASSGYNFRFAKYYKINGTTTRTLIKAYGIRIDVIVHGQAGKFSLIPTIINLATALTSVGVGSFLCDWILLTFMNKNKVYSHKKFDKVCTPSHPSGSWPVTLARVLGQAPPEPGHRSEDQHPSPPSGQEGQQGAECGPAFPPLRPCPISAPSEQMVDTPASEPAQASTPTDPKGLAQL
Experiment: TEVC of ATP-induced currents, hP2X2R in X. laevis oocytes (steady-state protocol)
Assay type: cell-based
Excerpt: Oocyte expression plasmids encoding the wild-type (wt) and N-terminally His-tagged (His-) fusion constructs of the hP2X2R, hP2X3R, hP2X4R, and hP2X7R, and the mutant His-^20RMVL^23KVIV^23S^26N-hP2X1R, S^15V-rP2X3R, and His-S^15V-hP2X3R were the same as used in previous research ([Hausmann et al., 2006]; [Wolf et al., 2011]; [Hausmann et al., 2014]; [Obrecht et al., 2019]). In most cases, the N-terminal His-tagged variants of P2XRs were used here and in the previous studies to allow biochemical analyses on affinity-purified proteins using the same constructs. Although this was not required for the present study, it allows for better comparability with our previous studies. Capped cRNAs of different P2XRs were already available in the research group or were synthesized as previously described ([Schmalzing et al., 1991]; [Stolz et al., 2015]). cRNA was injected into collagenase-defolliculated X. laevis oocytes in aliquots of 41 nl or 23 nl (see Supplementary Table S1 for the amount of cRNA used for expression of the indicated P2XR) using a Nanoliter 2000 injector (World Precision Instruments, Sarasota, United States of America) as described previously ([Hausmann et al., 2014]; [Stolz et al., 2015]; [Obrecht et al., 2019]). To express the heteromeric hP2X2/3 receptor, cRNAs encoding His-hP2X2R and wt-hP2X3R were coinjected at a ratio (w/w) of 1:6. Oocytes were stored at 19°C in an oocyte ringer solution (ORi^+) containing 90 mM NaCl, 1 mM KCl, 1 mM CaCl2, 1 mM MgCl2, and 10 mM HEPES (Carl Roth, Karlsruhe, Germany) adjusted to pH 7.4 with NaOH and supplemented with 50 μg/ml gentamicin (AppliChem, Darmstadt, Germany). The procedures followed for the maintenance of and the surgical treatment for X. laevis adults were approved by the governmental animal care and use committee of the State Agency for Nature, Environment, and Consumer Protection (LANUV, Recklinghausen, Germany; reference no. 81-02.04.2019. A355), in compliance with Directive 2010/63/EU of the European Parliament and of the Council on the protection of animals used for scientific purpose.
Ion currents mediated by P2X receptors were evoked by the indicated concentration of ATP or α,β-meATP and were recorded 1 or 2 days after cRNA injection at ambient temperature at a holding potential of −60 mV by two-electrode voltage clamp (TEVC) as previously described ([Hausmann et al., 2006]). Calcium-free ORi^− solution (90 mM NaCl, 1 mM KCl, 2 mM MgCl2, 10 mM HEPES, pH 7.4) was used to avoid bias due to calcium-activated chloride channels (CaCC) endogenously expressed in X. laevis oocytes ([Miledi, 1982]; [Methfessel et al., 1986]). For recordings of wt-hP2X7R, the composition of the ORi^− solution was modified according to protocols described previously and contained 100 mM NaCl, 2.5 mM KCl, 1 mM MgCl2, 5 mM HEPES, pH 7.4 ([Klapperstück et al., 2000]). The oocytes were continuously superfused with ORi^− by gravity flow (5–10 ml/min). The agonists ATP or α,β-meATP and the investigated NSAIDs were diluted in ORi^− on the day of the recording. The following agonist concentrations were used for the different P2X subtypes: 1 μM ATP (hP2X1R mutant, hP2X3R, rP2X3R, S^15V-hP2X3R, and S^15V-rP2X3R); 10 μM ATP (hP2X2R and hP2X4R); 300 μM free ATP^4- (hP2X7R); and 1 μM α,β-meATP (hP2X2/3R). […]

| pEC50 (10 µM ATP, concentration–response curve, read-out: half-maximal potentiation value) | Structure (SMILES) | increase in hP2X2R current amplitude (potentiation) on co-application with ATP (10 µM ATP, compared to steady-state current in absence of the drug) [fold] | IC50 (10 µM ATP, steady-state protocol, * no inhibition, but potentiation) | Max. inhibition at 1 mM (10 µM ATP, * no inhibition, but potentiation) | agonist effect (current induced in the absence of ATP) (100 µM diclofenac, 300 µM FFA, absence of ATP) |
| --- | --- | --- | --- | --- | --- |
|  | O=C(O)Cc1ccccc1Nc1c(Cl)cccc1Cl [Diclofenac, diclofenac] | 1.7 | no inh.* | no inh.* | Neither 100 µM diclofenac nor 300 µM FFA induced current |
| 3.80 | O=C(O)c1ccccc1Nc1cccc(C(F)(F)F)c1 [Flufenamic acid, flufenamic acid] |  |  |  |  |

— article PMC10060569 (Frontiers in Pharmacology, 2023)
